# Legend:
# Type in all cases: cell-based
# [1] = system: human lens epithelial cells (LECs); test: Confluent LEC monolayers exposed to solutions; MTT cell viability and microscopy; conditions: 28 μM, 112 μM and 224 μM bumetanide, ≦200 mM NaCl, 3 μl of 5N NaOH
# [2] = system: human corneal endothelial cells (CEDCs); test: Confluent CEDC monolayers exposed to solutions; MTT cell viability; conditions: 28 μM, 112 μM and 224 μM bumetanide, ≦200 mM NaCl, 3 μl of 5N NaOH
# Procedure: As described below, the confluent monolayers of LECs, CEDCs, and RPECs grown in 96-well flat-bottom plates are exposed to varying concentrations of NaCl (an osmolyte) solution. Two hundred μl of NaCl solution (prepared as described below) are added to each well at concentrations of 137 mM, 170 mM, 340 mM, 680 mM, 1360 mM and 2000 mM NaCl, respectively. The solutions have a pH of 8.0±0.4. The concentrations of NaCl correspond to final osmolarities of about 285 to 4000 mOsm/L, respectively.
# The primary and first passages of human lens epithelial cells, human corneal endothelial cells, and human retinal-pigmented epithelial cells are cultured. The LECs, the CEDCs, and the RPECs are isolated from post-mortem eyes by using standard techniques of cell isolation and enzyme digestion. See Uebersax E D, Grindstaff R D and Defoe D M Exp Eye Res. 2000 March; 70(3): 381-90; Wagner L M, Saleh S M, Boyle D J, and Takemoto D J. Mol Vis. 2002 Mar. 14; 8: 59-66; Cammarata P R, Schafer G, Chen S W, Guo Z, and Reeves R E. Invest Ophthalmol Vis Sci. 2002 February; 43(2): 425-33; Rakic J M, Galand A, and Vrensen G F. Exp Eye Res. 2000 November; 71(5): 489-94. LECs and CEDCs are cultured in Eagle's minimum essential medium (MEM). RPECs are cultured in Ham's F10 medium, supplemented with 2 mM glutamine, 25 mmol/L Hepes, pH 7.4, 10 U/mL penicillin, and 10 μg/mL streptomycin and 15% heat-inactivated foetal cow serum (FCS). […]
# After treatment, the treated cells are thoroughly washed, and cultured with fresh media for twelve hours before cell viability is assessed. The capability of these cells to survive at the indicated hypertonic stress levels is assessed by an MTT assay 12-24 hours post-exposure.
# MTT assay is an assay to assess mitochondria function, performed as described by Mosmann (Mosmann, T. J Immunol Methods. 1983 Dec. 16; 65(1-2): 55-63. The tetrazolium salt 3-(4,5-dimethylthiazol-2-yl)-2,5-diphenyl tetrazolium bromide (MTT; supplied by Sigma Chemical Co.) is dissolved in Phosphate's Balanced Salt (PBS) Solutions at 5 mg/ml and sterilized by passage through a 0.22 μm Millipore filter. MTT stock solution is added to growth media at a ratio of 1 to 10. Cells are incubated with this growth media for three to four hours. In cells that are alive at the time of adding MTT, mitochondrial dehydrogenase cleaves the tetrazolium ring into a dark blue formazan reaction product, which builds up in the cell. […] Cells in each well are scored as MTT-positive if they are completely filled with reaction product (in the case of unattached cells) or contain many formazan crystals emanating from multiple foci (in the case of attached or spread cells). MTT-reacted cultures are then lysised by dimethyl sulfoxide (DMSO) and read in a Microplate Reader to obtain a measure of cell viability. […]
# [3] = system: human LECs-CCCs freshly removed from cataract operation; test: In situ treatment of LECs attached to capsulorhexis lens capsule (LECs-CCC)
# Procedure: The in situ effects of a treatment solution comprising dihydrochlorothiazide (DHCT) (a cotransport interference agent from the group of the thiazide and related diuretics) and hyperosmotic NaCl on human LECs is examined. The treatment is tested on LECs that are still attached to a continuous curvilinear capsulorhexis lens capsule (LECs-CCC) which are freshly removed from a human cataract operation.
# The LECs-CCCs are obtained from a cataract operation and immediately put in freshly prepared Eagle's Minimum Essential Medium (MEM) supplemented with 2 mM glutamine, 25 mmol/L Hepes (pH 7.4) without foetal cow serum (FCS) and is transferred to the laboratory for evaluation. Viable LECs are identified by staining the LECs-CCCs for five minutes with 0.2% Trypan Blue. The sheets containing more than 70% viable LECs are used to assess the efficacy of the treatment. […]
# In the first step, a hyperosmotic solution of NaCl is prepared by making a stock solution of 2 M NaCl by adding 58.44 g NaCl (supplied by Sigma Chemical Co., U.S.) to 500 ml dH2O. The desired concentration of osmotic NaCl is prepared by diluting the 2M stock solution with dH2O. For example, to make a hyperosmotic solution of 170 mM NaCl, the 2M NaCl stock solution was diluted with dH2O at a ratio of […]. To make a hyperosmotic solution of 200 mM NaCl, the 2M NaCl stock solution is diluted with dH2O at a ratio of 1 to 9. Final osmolarities (mOsm/kg/H2O) are determined by a freezing point depression method using cryoscopic osmometry.
# In the second step, DHCT stock solution is made by adding 25 mg DHCT to 1 ml dH2O. […]
# The treatment is applied by exposing the LECs-CCCs for five minutes in a small petri dish containing the treatment solution. The treatment solution is removed after five minutes exposure by a syringe and then the fresh PBS is added in the petri dish to wash away the treatment solution. The LECs-CCCs are washed three times. The changes of the LECS are monitored under a microscope. Microscope photographs are taken at 0, 2 and 5 minutes and after wash.
smiles,measurement,setting,value
CCCCNc1cc(C(=O)O)cc(S(N)(=O)=O)c1Oc1ccccc1 [bumetanide],LECs showing MTT negative response,[1],~100%
same,LEC response under phase-contrast microscopic observation,[1]; about ten minutes,"nearly all of the LECs shrink, detach and/or die"
same,CEDCs killed or removed,[2],< 30%
same,LEC changes after exposure,[3]; 308 μm bumetanide and hyperosmotic 170 or 200 mM NaCl,"do not detach, but arrest and die while shrunken"
same,LEC death by trypan blue exclusion,"[3]; 308 μm bumetanide and hyperosmotic NaCl, after washing",cells died after treatment

# From US7875270B2, “Treatment solution and method for preventing posterior capsular opacification by selectively inducing detachment and/or death of lens epithelial cells” (Abbott Medical Optics Inc., priority 2002, dated 2011)
